IC50 data for one compound are collected here from ChEMBL document CHEMBL1158820, “Avrainvilloside, a 6-deoxy-6-aminoglucoglycerolipid from the green alga Avrainvillea nigricans” (J Nat Prod, 2005).

SMILES strings stand for the structures.

The subject of the experiment is WEHI-164. The experiment can be described thus: Cytotoxicity against mouse WEHI164 cells. It is filed as functional, cell-based.

`CCCCCCCCCCCCCCCCCC(=O)OC[C@H](CO[C@H]1O[C@H](CN)[C@@H](O)[C@H](O)[C@H]1O)OC(=O)CCCCCCCCCCCCCCCCC` [AVRAINVILLOSIDE]: the IC50 is above 10 µg/mL.

For orientation: IC50 means the concentration needed to halve the response being measured. A high value points to lower potency.
